# Reference: PMC12621043, “Un-LOK-ing a New Approach for Conformational Selective Targeting of STK10 (LOK)” (ACS Medicinal Chemistry Letters, 2025)
# Several values for one entry are separate records, joined by “and”; a condition that tells them apart may be missing. Identical values can stand only once.
# What was measured:
# STK4 (STK4A) = target: T1, STK4 (STK4A) (Homo sapiens, UniProt Q13043); assay: DSF Tm panel; assay type: binding; details: 10 μM compound
# T1 construct: purchased in-house DSF kinase panel (SGC-style construct names; the trailing letter is the construct ID)
# T1 sequence (Q13043 1-311): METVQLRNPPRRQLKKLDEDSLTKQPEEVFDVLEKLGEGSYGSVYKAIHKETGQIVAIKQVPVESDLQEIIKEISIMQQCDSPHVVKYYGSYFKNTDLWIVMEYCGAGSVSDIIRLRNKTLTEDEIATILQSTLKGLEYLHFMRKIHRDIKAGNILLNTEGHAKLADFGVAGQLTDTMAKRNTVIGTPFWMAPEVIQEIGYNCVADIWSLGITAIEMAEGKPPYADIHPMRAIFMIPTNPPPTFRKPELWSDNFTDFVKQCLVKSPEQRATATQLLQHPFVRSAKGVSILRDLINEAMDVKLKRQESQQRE
# CDK2A = target: T2, CDK2A (Homo sapiens, UniProt P24941); assay: DSF Tm panel; assay type: binding; details: 10 μM compound
# T2 construct: purchased in-house DSF kinase panel (SGC-style construct names; the trailing letter is the construct ID)
# DAPK3 (DAPK3A) = target: T3, DAPK3 (DAPK3A) (Homo sapiens, UniProt O43293); assay: DSF Tm panel; assay type: binding; details: 10 μM compound
# T3 construct: purchased in-house DSF kinase panel (SGC-style construct names; the trailing letter is the construct ID)
# T3 sequence (O43293 whole entry): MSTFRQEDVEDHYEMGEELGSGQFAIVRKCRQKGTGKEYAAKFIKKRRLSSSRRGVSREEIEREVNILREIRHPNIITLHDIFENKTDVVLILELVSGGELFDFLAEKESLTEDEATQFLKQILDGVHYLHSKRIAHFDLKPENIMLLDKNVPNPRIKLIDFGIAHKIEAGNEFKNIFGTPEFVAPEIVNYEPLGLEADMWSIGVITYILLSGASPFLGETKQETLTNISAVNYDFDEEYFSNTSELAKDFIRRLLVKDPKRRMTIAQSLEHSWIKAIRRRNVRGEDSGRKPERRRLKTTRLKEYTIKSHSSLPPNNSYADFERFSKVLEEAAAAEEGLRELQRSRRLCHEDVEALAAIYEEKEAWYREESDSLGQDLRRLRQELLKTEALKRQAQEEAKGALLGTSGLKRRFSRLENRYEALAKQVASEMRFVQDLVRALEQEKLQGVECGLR
# STK39A = target: T4, STK39A (Homo sapiens, UniProt Q9UEW8); assay: DSF Tm panel; assay type: binding; details: 10 μM compound
# T4 construct: purchased in-house DSF kinase panel (SGC-style construct names; the trailing letter is the construct ID)
# CASKA = target: T5, CASKA (Homo sapiens, UniProt O14936); assay: DSF Tm panel; assay type: binding; details: 10 μM compound
# T5 construct: purchased in-house DSF kinase panel (SGC-style construct names; the trailing letter is the construct ID)
# T5 sequence (O14936 12-276): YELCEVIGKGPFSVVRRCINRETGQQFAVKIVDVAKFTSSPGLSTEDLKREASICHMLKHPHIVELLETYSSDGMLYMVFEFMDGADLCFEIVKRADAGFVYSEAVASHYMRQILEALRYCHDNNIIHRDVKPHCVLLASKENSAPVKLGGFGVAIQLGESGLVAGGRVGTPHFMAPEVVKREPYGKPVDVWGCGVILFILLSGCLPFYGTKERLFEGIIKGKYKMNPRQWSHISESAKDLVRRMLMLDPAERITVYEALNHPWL
# PCTK1A = target: T6, PCTK1A (Homo sapiens, UniProt Q00536); assay: DSF Tm panel; assay type: binding; details: 10 μM compound
# T6 construct: purchased in-house DSF kinase panel (SGC-style construct names; the trailing letter is the construct ID)
# T6 sequence (Q00536 163-478): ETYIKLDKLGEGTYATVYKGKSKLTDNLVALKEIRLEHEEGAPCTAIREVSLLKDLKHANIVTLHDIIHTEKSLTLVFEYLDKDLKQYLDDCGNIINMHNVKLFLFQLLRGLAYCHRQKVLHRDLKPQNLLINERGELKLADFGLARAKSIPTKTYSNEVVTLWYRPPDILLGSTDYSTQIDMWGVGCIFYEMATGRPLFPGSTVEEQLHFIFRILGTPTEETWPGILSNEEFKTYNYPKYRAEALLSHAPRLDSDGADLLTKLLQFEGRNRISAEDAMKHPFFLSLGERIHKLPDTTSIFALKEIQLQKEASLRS
# MARK4A = target: T7, MARK4A (Homo sapiens, UniProt Q96L34); assay: DSF Tm panel; assay type: binding; details: 10 μM compound
# T7 construct: purchased in-house DSF kinase panel (SGC-style construct names; the trailing letter is the construct ID)
# T7 sequence (Q96L34 59-310): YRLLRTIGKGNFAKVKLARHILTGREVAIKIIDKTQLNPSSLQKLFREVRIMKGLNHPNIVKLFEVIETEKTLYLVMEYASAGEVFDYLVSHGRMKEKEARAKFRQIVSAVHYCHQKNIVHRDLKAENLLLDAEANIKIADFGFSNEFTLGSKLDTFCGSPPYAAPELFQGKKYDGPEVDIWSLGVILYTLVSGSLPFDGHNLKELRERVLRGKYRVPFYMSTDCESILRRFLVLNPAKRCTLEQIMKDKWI
# CAMK2BA = target: T8, CAMK2BA (Homo sapiens, UniProt Q13554); assay: DSF Tm panel; assay type: binding; details: 10 μM compound
# T8 construct: purchased in-house DSF kinase panel (SGC-style construct names; the trailing letter is the construct ID)
# T8 sequence (Q13554 11-303): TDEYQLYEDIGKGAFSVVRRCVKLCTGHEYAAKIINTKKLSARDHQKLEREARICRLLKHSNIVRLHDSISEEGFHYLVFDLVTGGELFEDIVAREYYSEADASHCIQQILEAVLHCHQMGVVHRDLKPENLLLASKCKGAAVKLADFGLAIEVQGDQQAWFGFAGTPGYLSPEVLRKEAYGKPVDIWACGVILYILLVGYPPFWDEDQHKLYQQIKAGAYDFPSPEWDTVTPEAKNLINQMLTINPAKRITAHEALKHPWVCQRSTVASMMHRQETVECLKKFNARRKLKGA
# STK17BA = target: T9, STK17BA (Homo sapiens, UniProt O94768); assay: DSF Tm panel; assay type: binding; details: 10 μM compound
# T9 construct: purchased in-house DSF kinase panel (SGC-style construct names; the trailing letter is the construct ID)
# T9 sequence (O94768 25-329): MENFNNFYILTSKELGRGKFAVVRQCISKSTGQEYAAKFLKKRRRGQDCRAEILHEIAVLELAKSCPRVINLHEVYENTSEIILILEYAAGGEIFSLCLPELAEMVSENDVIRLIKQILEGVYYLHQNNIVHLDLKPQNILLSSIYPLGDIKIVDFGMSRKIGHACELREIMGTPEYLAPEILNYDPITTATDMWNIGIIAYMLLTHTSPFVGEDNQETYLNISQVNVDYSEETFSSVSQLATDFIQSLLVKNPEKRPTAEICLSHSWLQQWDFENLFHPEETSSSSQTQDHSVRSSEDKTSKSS
# MST4A = target: T10, MST4A (Homo sapiens, UniProt Q9P289); assay: DSF Tm panel; assay type: binding; details: 10 μM compound
# T10 construct: purchased in-house DSF kinase panel (SGC-style construct names; the trailing letter is the construct ID)
# T10 sequence (Q9P289 1-300): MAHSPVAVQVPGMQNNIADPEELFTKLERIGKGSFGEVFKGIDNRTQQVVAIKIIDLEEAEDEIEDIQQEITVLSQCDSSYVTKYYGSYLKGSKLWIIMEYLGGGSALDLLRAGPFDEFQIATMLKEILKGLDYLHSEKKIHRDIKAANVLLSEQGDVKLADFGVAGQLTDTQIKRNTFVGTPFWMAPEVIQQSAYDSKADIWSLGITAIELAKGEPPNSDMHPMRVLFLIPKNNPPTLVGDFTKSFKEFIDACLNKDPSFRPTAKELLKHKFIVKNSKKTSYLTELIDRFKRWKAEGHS
# ABL1 (ABL1A) = target: T11, ABL1 (ABL1A) (Homo sapiens, UniProt P00519); assay: DSF Tm panel; assay type: binding; details: 10 μM compound
# T11 construct: purchased in-house DSF kinase panel (SGC-style construct names; the trailing letter is the construct ID)
# T11 sequence (P00519 229-512): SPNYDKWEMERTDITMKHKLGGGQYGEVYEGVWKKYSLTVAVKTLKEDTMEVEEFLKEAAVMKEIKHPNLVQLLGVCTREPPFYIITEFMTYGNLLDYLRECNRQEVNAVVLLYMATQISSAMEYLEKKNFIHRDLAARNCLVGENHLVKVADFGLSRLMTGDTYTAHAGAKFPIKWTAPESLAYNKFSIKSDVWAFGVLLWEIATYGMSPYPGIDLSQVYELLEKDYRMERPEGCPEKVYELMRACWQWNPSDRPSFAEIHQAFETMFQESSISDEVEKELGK
# DCAMKL1A = target: T12, DCAMKL1A (Homo sapiens, UniProt O15075); assay: DSF Tm panel; assay type: binding; details: 10 μM compound
# T12 construct: purchased in-house DSF kinase panel (SGC-style construct names; the trailing letter is the construct ID)
# T12 sequence (O15075 372-649): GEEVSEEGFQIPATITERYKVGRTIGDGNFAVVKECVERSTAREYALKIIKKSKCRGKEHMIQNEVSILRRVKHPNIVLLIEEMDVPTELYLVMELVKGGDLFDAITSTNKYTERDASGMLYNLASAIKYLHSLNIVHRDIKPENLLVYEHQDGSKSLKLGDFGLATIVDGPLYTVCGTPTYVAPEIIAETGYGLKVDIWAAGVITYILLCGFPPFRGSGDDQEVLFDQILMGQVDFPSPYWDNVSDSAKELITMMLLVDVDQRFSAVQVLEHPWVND
# MARK3A = target: T13, MARK3A (Homo sapiens, UniProt P27448); assay: DSF Tm panel; assay type: binding; details: 10 μM compound
# T13 construct: purchased in-house DSF kinase panel (SGC-style construct names; the trailing letter is the construct ID)
# T13 sequence (P27448 56-307): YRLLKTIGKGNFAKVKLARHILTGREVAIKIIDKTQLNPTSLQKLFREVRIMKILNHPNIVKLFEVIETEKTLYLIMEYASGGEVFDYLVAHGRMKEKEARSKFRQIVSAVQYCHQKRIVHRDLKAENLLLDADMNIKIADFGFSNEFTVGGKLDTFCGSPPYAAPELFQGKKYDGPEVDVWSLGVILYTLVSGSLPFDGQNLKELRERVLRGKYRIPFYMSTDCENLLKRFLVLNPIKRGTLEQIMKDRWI
# CDKL1A = target: T14, CDKL1A (Homo sapiens, UniProt Q00532); assay: DSF Tm panel; assay type: binding; details: 10 μM compound
# T14 construct: purchased in-house DSF kinase panel (SGC-style construct names; the trailing letter is the construct ID)
# T14 sequence (Q00532 1-303): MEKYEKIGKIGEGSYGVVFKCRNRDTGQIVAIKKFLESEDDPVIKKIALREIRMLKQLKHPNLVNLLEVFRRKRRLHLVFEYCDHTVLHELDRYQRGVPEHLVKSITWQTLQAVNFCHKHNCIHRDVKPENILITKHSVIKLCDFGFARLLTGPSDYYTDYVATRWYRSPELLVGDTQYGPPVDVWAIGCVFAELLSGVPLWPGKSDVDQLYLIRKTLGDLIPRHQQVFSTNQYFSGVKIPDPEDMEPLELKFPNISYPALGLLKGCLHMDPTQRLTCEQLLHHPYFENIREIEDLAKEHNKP
# MAPK10A = target: T15, MAPK10A (Homo sapiens, UniProt P53779); assay: DSF Tm panel; assay type: binding; details: 10 μM compound
# T15 construct: purchased in-house DSF kinase panel (SGC-style construct names; the trailing letter is the construct ID)
# T15 sequence (P53779 39-402): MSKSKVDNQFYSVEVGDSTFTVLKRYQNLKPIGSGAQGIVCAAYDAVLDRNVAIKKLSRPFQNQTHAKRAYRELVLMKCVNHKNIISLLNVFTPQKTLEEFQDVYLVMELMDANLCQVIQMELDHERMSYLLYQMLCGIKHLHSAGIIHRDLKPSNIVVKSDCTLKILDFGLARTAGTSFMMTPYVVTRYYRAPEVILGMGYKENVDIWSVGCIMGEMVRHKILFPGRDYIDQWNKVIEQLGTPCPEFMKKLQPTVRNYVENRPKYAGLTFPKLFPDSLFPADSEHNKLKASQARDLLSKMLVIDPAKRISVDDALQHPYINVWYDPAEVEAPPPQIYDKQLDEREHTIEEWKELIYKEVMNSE
# VRK1A = target: T16, VRK1A (Homo sapiens, UniProt Q99986); assay: DSF Tm panel; assay type: binding; details: 10 μM compound
# T16 construct: purchased in-house DSF kinase panel (SGC-style construct names; the trailing letter is the construct ID)
# T16 sequence (Q99986 1-396): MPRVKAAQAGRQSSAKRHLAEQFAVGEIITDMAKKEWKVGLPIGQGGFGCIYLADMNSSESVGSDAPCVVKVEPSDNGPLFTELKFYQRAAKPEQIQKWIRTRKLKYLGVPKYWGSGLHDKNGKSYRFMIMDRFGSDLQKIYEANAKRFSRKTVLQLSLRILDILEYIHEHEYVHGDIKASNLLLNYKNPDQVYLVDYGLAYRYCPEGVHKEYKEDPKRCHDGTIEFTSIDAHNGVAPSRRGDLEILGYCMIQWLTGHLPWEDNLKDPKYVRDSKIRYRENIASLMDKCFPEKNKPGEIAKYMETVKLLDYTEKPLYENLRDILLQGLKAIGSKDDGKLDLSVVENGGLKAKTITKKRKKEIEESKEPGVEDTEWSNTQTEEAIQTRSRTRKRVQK
# STK10 = target: T17, STK10 (Homo sapiens, UniProt O94804); assay: PhosphoSens in vitro activity assay; assay type: biochemical; details: ATP 160 μM
# T17 construct: purchased in-house DSF kinase panel (SGC-style construct names; the trailing letter is the construct ID)
# T17 sequence (O94804 18-317 limits assumed): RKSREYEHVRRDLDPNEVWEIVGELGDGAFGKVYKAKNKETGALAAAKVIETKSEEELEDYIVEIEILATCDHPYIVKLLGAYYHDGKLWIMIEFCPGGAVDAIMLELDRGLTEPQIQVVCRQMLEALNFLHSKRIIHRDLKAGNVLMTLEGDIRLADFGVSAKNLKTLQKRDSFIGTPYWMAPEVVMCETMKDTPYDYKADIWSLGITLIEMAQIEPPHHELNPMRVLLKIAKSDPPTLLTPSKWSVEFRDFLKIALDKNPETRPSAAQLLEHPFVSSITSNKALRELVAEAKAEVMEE
# SLK = SLK (Homo sapiens, UniProt Q9H2G2); assay: NanoBRET target engagement assay; assay type: cell-based; design: has a greater impact on the full-length protein than on the kinase domains; host or cells: HEK293T (ATCC CRL-3216); details: HEK293T cells
# Chain of SLK (Q9H2G2 whole entry, the tested form may be a part): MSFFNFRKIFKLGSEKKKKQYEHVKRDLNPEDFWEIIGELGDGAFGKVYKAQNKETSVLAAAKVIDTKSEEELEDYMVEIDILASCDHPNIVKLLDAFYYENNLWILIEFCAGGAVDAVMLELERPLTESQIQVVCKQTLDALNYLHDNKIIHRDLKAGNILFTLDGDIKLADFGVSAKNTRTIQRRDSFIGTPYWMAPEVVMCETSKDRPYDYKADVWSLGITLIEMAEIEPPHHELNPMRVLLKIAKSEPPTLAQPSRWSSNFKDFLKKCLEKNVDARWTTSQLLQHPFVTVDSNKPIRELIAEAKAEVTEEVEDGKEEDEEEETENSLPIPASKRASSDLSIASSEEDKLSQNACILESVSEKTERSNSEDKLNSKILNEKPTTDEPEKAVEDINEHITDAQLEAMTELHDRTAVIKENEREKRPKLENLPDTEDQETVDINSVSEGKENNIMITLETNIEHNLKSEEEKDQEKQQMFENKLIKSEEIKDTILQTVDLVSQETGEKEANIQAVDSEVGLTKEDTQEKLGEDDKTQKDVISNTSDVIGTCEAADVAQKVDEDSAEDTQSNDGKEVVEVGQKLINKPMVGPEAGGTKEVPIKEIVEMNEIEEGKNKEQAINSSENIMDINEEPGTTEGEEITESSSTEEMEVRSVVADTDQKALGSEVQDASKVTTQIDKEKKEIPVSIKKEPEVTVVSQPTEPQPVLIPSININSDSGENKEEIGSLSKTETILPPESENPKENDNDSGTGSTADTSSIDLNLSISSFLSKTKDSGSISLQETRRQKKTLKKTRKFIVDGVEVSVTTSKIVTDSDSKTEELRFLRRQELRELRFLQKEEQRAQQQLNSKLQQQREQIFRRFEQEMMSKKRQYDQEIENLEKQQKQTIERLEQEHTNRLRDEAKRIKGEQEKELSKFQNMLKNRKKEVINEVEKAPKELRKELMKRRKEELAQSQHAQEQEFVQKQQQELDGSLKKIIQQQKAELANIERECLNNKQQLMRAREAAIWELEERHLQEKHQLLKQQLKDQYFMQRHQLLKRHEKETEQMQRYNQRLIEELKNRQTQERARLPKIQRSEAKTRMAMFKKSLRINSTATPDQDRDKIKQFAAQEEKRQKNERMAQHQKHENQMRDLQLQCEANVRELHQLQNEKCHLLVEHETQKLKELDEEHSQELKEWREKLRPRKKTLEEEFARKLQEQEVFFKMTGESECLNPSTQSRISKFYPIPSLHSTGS
Structure (SMILES),ΔTm at 10 µM (STK4 (STK4A)) [°C],ΔTm at 10 µM (CDK2A) [°C],ΔTm at 10 µM (DAPK3 (DAPK3A)) [°C],ΔTm at 10 µM (STK39A) [°C],ΔTm at 10 µM (CASKA) [°C],ΔTm at 10 µM (PCTK1A) [°C],ΔTm at 10 µM (MARK4A) [°C],ΔTm at 10 µM (CAMK2BA) [°C],ΔTm at 10 µM (STK17BA) [°C],ΔTm at 10 µM (MST4A) [°C],ΔTm at 10 µM (ABL1 (ABL1A)) [°C],ΔTm at 10 µM (DCAMKL1A) [°C],ΔTm at 10 µM (MARK3A) [°C],ΔTm at 10 µM (CDKL1A) [°C],ΔTm at 10 µM (MAPK10A) [°C],ΔTm at 10 µM (VRK1A) [°C],IC50 (STK10),EC50 (SLK) [µM]
Cc1cc(Cl)ccc1CNC(=O)Nc1ccc2cc1OCCOCCNc1ccn3ncc-2c3n1 [compound 23],7.4,3.1,-0.3,2.5,2.5,2.8,1.5,0.9,3.3,2.1,1.7,0.7,2.4,0.4,1,0.8,0.85 µM and < 1 µM,> 50
O=C(NCc1ccccc1C(F)(F)F)Nc1ccc2cc1OCCOCCNc1ccn3ncc-2c3n1 [compound 27],3.8,1.9,1.2,1.5,1.6,1.1,2.7,-0.1,5.1,1.9,2.4,2.3,1.4,0.4,0.7,0.4,2.36 ± 0.6 µM,> 50
COc1ccc(CNC(=O)Nc2ccc3cc2OCCOCCNc2ccn4ncc-3c4n2)cc1F [compound 32],4.4,3.4,1.2,1.4,1.7,2,2.5,0,3.4,1.2,1.7,1.6,0.5,0.5,0.8,0.2,3.33 ± 0.66 µM,> 50
COc1cc(CNC(=O)Nc2ccc3cc2OCCOCCNc2ccn4ncc-3c4n2)ccc1F [compound 33],3.8,2.7,2.1,1.2,0.9,1.7,2.2,0.1,2.7,1.2,1.5,2.2,0.3,0.5,0.7,0.3,2.34 ± 0.79 µM,> 50
COc1cccc(CNC(=O)Nc2ccc3cc2OCCOCCNc2ccn4ncc-3c4n2)c1 [compound 30],3,2.5,1.2,1.2,0.9,1.3,1.5,-0.2,1.8,0.3,1.5,1.2,-0.3,0.3,0.5,0.3,6.29 ± 1.49 µM,> 50

# Next, values leading:
ΔTm at 10 µM (STK4 (STK4A)) [°C],ΔTm at 10 µM (CDK2A) [°C],ΔTm at 10 µM (DAPK3 (DAPK3A)) [°C],ΔTm at 10 µM (STK39A) [°C],ΔTm at 10 µM (CASKA) [°C],ΔTm at 10 µM (PCTK1A) [°C],ΔTm at 10 µM (MARK4A) [°C],ΔTm at 10 µM (CAMK2BA) [°C],ΔTm at 10 µM (STK17BA) [°C],ΔTm at 10 µM (MST4A) [°C],ΔTm at 10 µM (ABL1 (ABL1A)) [°C],ΔTm at 10 µM (DCAMKL1A) [°C],ΔTm at 10 µM (MARK3A) [°C],ΔTm at 10 µM (CDKL1A) [°C],ΔTm at 10 µM (MAPK10A) [°C],ΔTm at 10 µM (VRK1A) [°C],IC50 (STK10),EC50 (SLK) [µM],Structure (SMILES)
2.7,1,1.8,1,1,0.5,0.9,-0.3,2.7,0.4,1.3,1.9,0,0.2,0.1,0,10.2 µM,> 50,C[C@H](NC(=O)Nc1ccc2cc1OCCOCCNc1ccn3ncc-2c3n1)c1ccccc1 [compound 34]
5.5,5.6,0.9,2.6,2.2,1.3,2,-0.1,1.2,1.1,1.8,0,0.2,0.3,0.8,0.1,0.95 ± 0.12 µM,> 50,O=C(NCc1ccc(Cl)cc1)Nc1ccc2cc1OCCOCCNc1ccn3ncc-2c3n1 [compound 19]
4.9,5.9,1.1,2.4,2.7,1.1,2.6,0.8,2.7,1.1,2.3,0.4,1.5,0,1.4,0.9,2.62 ± 0.61 µM,> 50,O=C(NCc1ccc(Cl)cc1F)Nc1ccc2cc1OCCOCCNc1ccn3ncc-2c3n1 [compound 21]
4.9,4.1,3.4,3,2.2,1.8,1.7,1.3,1.3,1.3,1.2,0.8,0.7,-0.1,-0.3,-0.4,0.88 ± 0.11 µM,> 50,O=C(NCc1ccccc1)Nc1ccc2cc1OCCOCCNc1ccn3ncc-2c3n1 [compound 16]
